# How the values were obtained:
# [1] = test system: LNCaP prostate cancer xenograft; test: Human prostate cancer xenograft in nude mice, oral treatment; type: in vivo
# Description: 3×10^6 LNCaP cells suspended in matrigel were subcutaneously injected (on the right flank) into 6 week old male athymic nude mice. Tumors were measured as described above. Treatment with CB-03-10 and controls compounds was initiated after the tumor had reached 50 mm3. […] Oral dosing was daily (100 mg/Kg in 200 μL/mouse) for 28 consecutive days. Results were plotted as average change in tumor volume relative to the start of treatment.
# [2] = test system: MiaPaca2 cells; test: Apoptosis induction, Annexin V / propidium iodide flow cytometry; type: cell-based; conditions: 24 hours; control 11%; FIG. 9
# Description: CB-03-10 was evaluated to determine if the mechanism of cytotoxicity on cancer cell lines was mediated by apoptosis and cell cycle arrest. Cancer cell lines were seeded in 6-well flat bottom plates. After 24 hours test compounds or DMSO vehicle (negative control) were added. After an additional 24 hours cells were scraped and stained with fluorescein conjugated Annexin V and propidium iodide and analyzed by flow cytometry.
# [3] = test system: BxPC3; conditions: human, 3 days
# [4] = test system: HT29; test: MTT colorimetric assay, 72 h; type: cell-based; conditions: human, 72 h
# Description: The experiment was performed to test and define anticancer activity in vitro of Cortexolone 17α-benzoate and cortexolone 17α-valerate-21-propionate on cell lines representatives of epithelial intestinal tumors, namely HT29. The experiment method consisted in: • 1. Monolayer HT-29 cells were plated in: 96-wells plates at the density of 2×10^4 cells/mL. The cells plated were kept at 37° C. in 5% CO2 and left to attach for 24 h. • 2. […] After 72 h of treatment, the MTT colorimetric assay was performed.
# [5] = test system: MCF7; test: In vitro proliferation / cytotoxic assay on breast cancer cells (cell titer glo); conditions: human, 3 days
# Description: For the cytotoxic assay: cells seeded in 96 well flat bottom culture plates in media containing charcoal stripped serum. After 24 hours test compounds were added to the cells. DMSO was used as the vehicle negative control and RU486 as the positive control. After 72 hours incubation cell were harvested, lysed and viability determined using the cell titer glow assay for viability.
# [6] = test system: Caspase 8 and Caspase 9; test: Caspase activity assay in MiaPaca2 cells; type: cell-based; conditions: 20 or 50 μM, evident after 8 hours, corrected for viable cells
# Description: (§1) To better analyze the phenomenon the enzymatic activity of Caspase 8 (initiator caspase for Extrinsic Pathway) and Caspase 9 (initiator caspase for Intrinsic Pathway) and of Caspases 3 and 7 (effector caspases) were measured.
# [7] = test system: Panc1; conditions: human, 3 days
# [8] = test system: Caspases 8, 9 and 3/7; test: Caspase activity assay in LNCaP prostate cancer cells; type: cell-based; conditions: 24 hours, FIG. 12
# Description: After 24 hours test compounds were added to cells, Gemcitabine (a known pancreatic cancer chemotherapeutic agent) and DMSO were used as positive and negative control, respectively. After 8, 24, & 48 hours incubation with test compounds, cells were lysed in buffer containing the caspase 3/7 or 8 or 9 substrate and a stable luciferase in proprietary buffers. The lysates were transferred to white opaque plates before measuring luminescence in a Tecan S afire instrument. Parallel plates treated identically, were used to determine viable cells. All caspase activities were corrected for the number of viable cells.
# Same assay was repeated using LNCaP prostate cancer cell lines (FIG. 12). […] The results are shown in FIG. 12 at 24 hours incubation when the caspase activities peaked.
# [9] = test system: MiaPaca2; conditions: human, 3 days
# [10] = test system: HT29; test: In vitro proliferation, larger cancer cell line panel; conditions: HT29
# [11] = test system: MiaPaca2 cells; test: Cell cycle arrest, propidium iodide staining; type: cell-based; conditions: 24 hours; FIG. 10
# Description: Apoptosis can occur at the G1/S or G2/M transition of the cell cycle. Cells were treated with CB-03-10 for 24 hours then fixed with paraformaldehyde and stained with propidium iodide. […] The lack of G1 block indicates no effect on p53. The S & G2/M blocks may indicate activity on cell cycle check point molecules. For S phase, a possible target is the cyclin dependent kinase 2 (CDK2). Gemzar and cisplatin are example drugs that act in S phase. For G2, a possible target is CDK1.
# [12] = test system: Caspase 3/7; test: Caspase activity assay in MiaPaca2 cells; type: cell-based; conditions: 8, 24, 48 hours, FIG. 11
# Description: as §1
smiles,measurement,setting,value
"CCCCC(=O)O[C@]1(C(=O)COC(=O)CC)CC[C@H]2[C@@H]3CCC4=CC(=O)CC[C@]4(C)[C@H]3CC[C@@]21C [CB-03-10, cortexolone 17α-valerate-21-propionate]","average tumor volume, times smaller than in the vehicle group",[1]; 6 weeks after treatment was stopped,3.6 times
same,prostate tumor size increase after treatment was stopped,"[1]; oral 100 mg/Kg daily 28 days, after stop",5 fold
same,tumor volume increase relative to start of treatment,"[1]; oral 100 mg/Kg daily, treatment period of 28 days, negative control 10-fold",2 fold
same,statistical significance of tumor growth versus vehicle,"[1]; oral gavage, FIG. 16",statistically significantly different from day 7 up to day 60
same,"cells in apoptosis (early and late apoptosis), total",[2],28%
same,Therapeutic Index = IC50 resting PBMC/IC50 cancer cell,[3],3
same,Therapeutic Index = IC50 stimulated PBMC/IC50 cancer cell,[3],3
same,"Therapeutic Index (TI), Stimulated PBMC",[4],3
same,Therapeutic Index = IC50 resting PBMC/IC50 cancer cell,[5],3
same,Therapeutic Index = IC50 stimulated PBMC/IC50 cancer cell,[5],3
same,"caspase 8 and 9 activity, increase compared to control",[6],≤ 7 fold
same,TI on Resting PBMC,[7],2
same,TI on Stimulated PBMC,[7],2
same,Therapeutic Index = IC50 resting PBMC/IC50 cancer cell,[7],2
same,Therapeutic Index = IC50 stimulated PBMC/IC50 cancer cell,[7],2
same,Initiator (8 and 9) and Effector (3/7) caspase activities,[8],induced Initiator (8 and 9) and Effector (3/7) caspase activities better than Enzalutamide
same,TI on Resting PBMC,[9],3
same,TI on Stimulated PBMC,[9],3
same,Therapeutic Index = IC50 resting PBMC/IC50 cancer cell,[9],3
same,Therapeutic Index = IC50 stimulated PBMC/IC50 cancer cell,[9],3
same,Therapeutic Index = IC50 resting PBMC/IC50 cancer cell,[10]; Table IV,3
same,Therapeutic Index = IC50 stimulated PBMC/IC50 cancer cell,[10]; Table VII,3
same,cell cycle arrest,[11],induces an S phase block at lower concentrations then a G2/M block at higher concentration
same,Caspase 3/7 induction / caspase activation profile,[12],already at 8 hours at and a really high level after 48 hours incubation

# — US11712443B2, “17α-monoesters and 17α,21-diesters of cortexolone for use in the treatment of tumors” (COSMO TECHNOLOGIES LTD., priority 2014, dated 2023)
